Data as given in patent publication US20020115724A1, “Methods and agents for inhibiting protein aging” (priority 1985, published 2002).
Where a name gives a salt, the structure may show the parent alone.

What was measured:
normal and diabetic rats = experiment: IgG bound to glomerular basement membranes, enzyme immunoassay; format: in vivo, rat; settings: 25 mg/kg daily intraperitoneal, 16 weeks
Procedure: To measure the level of advanced glycosylation end products in vivo, the kidneys of rats were examined for serum proteins which had become attached to glomerular basement membranes. This was determined to be a good model in which to study this process as it is known that significant kidney pathology occurs in untreated diabetes as a result of the buildup of extravasated plasma protein in the extravascular matrix in this organ.
The experiment consisted of giving both normal and diabetic rats daily intraperitoneal doses of the agent aminoguanidine hydrochloride at a dose of 25 mg per kilogram of body weight, for a period of 16 weeks. […] Diabetes was induced prior to drug therapy with a single dose of streptozotocin. Control animals, both diabetic and normal, received no drug.
At the end of the agent therapy, animals were sacrificed and the kidneys were removed. Each organ was removed from its capsule and the medulla was removed. […]
After overnight incubation to allow the antibody to bind to any IgG crosslinked to the glomerular basement membranes, the membranes were pelleted by centrifugation at 3200 rpm for five minutes and were washed free of the unbound antibody-enzyme conjugate with four rinses with PBS plus Tween followed by three rinses with distilled water. […] The reaction was stopped with the addition of 0.2 mL of M sodium hydroxide, and the absorbance at 400 nm was measured.

Laminin B1 mRNA = settings: diabetic rats; cited from earlier work

## N=C(N)NN [aminoguanidine hydrochloride]
Normal and diabetic rats; diabetic rats
  IgG bound to glomerular basement membranes: the same low level of IgG in normal animals
Normal and diabetic rats; normal rats
  IgG bound to glomerular basement membranes: about the same low level
Laminin B1 mRNA
  diabetes-induced increase in laminin mRNA in the kidney: prevents the diabetes-induced increase in laminin MRNA in the kidney
